For 27 molecules, IC50 results are on record in US11142515B2, “Pyrazolyl-ureas as kinase inhibitors” (RESPIVERT LIMITED, priority 2014, dated 2021).

The target of test [1] is T1, p38 MAPKα isoform (MAPK14) (Homo sapiens, UniProt Q16539).
T1 construct: purchased Life Technologies
The test is described as follows: p38 MAPKα enzyme inhibition (Z-LYTE FRET). Type of test: biochemical. The settings on record: Table 2B, unit inferred; read-out: p38 MAPKα (Enzyme Profile). On the procedure:
(§1) The enzyme inhibitory activities of compounds disclosed herein were determined by FRET using synthetic peptides labelled with both donor and acceptor fluorophores (Z-LYTE, Life Technologies, Paisley, UK).
The inhibitory activities of compounds of the invention against the p38 MAPKα isoform (MAPK14: Life Technologies), were evaluated indirectly by determining the level of activation/phosphorylation of the target peptide of the p38 MAPKα down-stream molecule, MAPKAP-K2. The enzyme (40 ng/mL, 2.5 μL) was incubated with the test compound (2.5 μL of either 40 μg/mL, 12 μg/mL, 4 μg/mL, 1.2 μg/mL, 0.4 μg/mL, 0.12 μg/mL, 0.04 μg/mL, 0.012 μg/mL, 0.004 μg/mL or 0.0012 μg/mL) for 2 h at RT. […] Development reagent (protease, 5 μL) was added for 1 h prior to detection in a fluorescence microplate reader (EnVision, Perkin Elmer, Waltham, Mass., USA).
(§2) In all cases, the site-specific protease cleaves non-phosphorylated peptide only and eliminates the FRET signal. Phosphorylation levels of each reaction were calculated using the ratio of coumarin emission (donor) over fluorescein emission (acceptor), for which low ratios indicate high phosphorylation and high ratios indicate low phosphorylation levels.

The next test has as its target T2, p38MAPKγ (MAPK12) (Homo sapiens, UniProt P53778).
T2 construct: purchased Life Technologies
T2 sequence (P53778 1-367): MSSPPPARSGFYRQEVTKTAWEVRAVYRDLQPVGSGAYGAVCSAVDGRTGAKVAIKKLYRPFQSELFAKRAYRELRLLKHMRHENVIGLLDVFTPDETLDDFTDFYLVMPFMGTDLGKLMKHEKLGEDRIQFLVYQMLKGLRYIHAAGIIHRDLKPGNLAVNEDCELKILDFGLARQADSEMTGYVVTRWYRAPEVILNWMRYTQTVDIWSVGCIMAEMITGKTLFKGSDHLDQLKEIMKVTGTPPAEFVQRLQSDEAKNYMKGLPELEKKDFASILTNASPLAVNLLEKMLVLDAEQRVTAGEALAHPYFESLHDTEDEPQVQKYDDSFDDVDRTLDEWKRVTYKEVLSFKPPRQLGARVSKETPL
The test is described as follows: p38 MAPKγ enzyme inhibition (Z-LYTE FRET). Type of test: biochemical. Conditions: Table 2B, unit inferred; read-out: p38 MAPKγ (Enzyme Profile). On the procedure: as §1
The inhibitory activities of compounds of the invention against p38MAPKγ (MAPK12: Life Technologies), were evaluated by determining the level of activation/phosphorylation of the target peptide. The enzyme (800 ng/mL, 2.5 μL) was incubated with the test compound (2.5 μL at either 40 μg/mL, 12 μg/mL, 4 μg/mL, 1.2 μg/mL, 0.4 μg/mL, 0.12 μg/mL, 0.04 μg/mL, 0.012 μg/mL, 0.004 μg/mL or 0.0012 μg/mL) for 2 h at RT. The FRET peptides (8 μM, 2.5 μL), and appropriate ATP solution (2.5 μL, 400 μM) were then added to the enzymes/compound mixtures and incubated for 1 h at RT. Development reagent (protease, 5 μL) was added for 1 h prior to detection in a fluorescence microplate reader (EnVision, Perkin Elmer).
as §2

Structures are written as SMILES.

T1 sequence (Q16539 whole entry, canonical isoform): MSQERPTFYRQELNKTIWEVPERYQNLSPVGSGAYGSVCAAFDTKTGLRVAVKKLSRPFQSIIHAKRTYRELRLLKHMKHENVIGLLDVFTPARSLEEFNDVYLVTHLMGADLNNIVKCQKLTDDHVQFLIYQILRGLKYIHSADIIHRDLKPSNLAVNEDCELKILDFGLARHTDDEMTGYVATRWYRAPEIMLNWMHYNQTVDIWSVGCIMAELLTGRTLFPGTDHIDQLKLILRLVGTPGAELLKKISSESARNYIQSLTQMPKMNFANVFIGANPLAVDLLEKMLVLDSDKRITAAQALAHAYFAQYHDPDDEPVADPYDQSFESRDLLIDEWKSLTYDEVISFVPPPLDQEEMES

For the molecule `COCCN(C)C(=O)c1cnc(Nc2cc(COc3ccc(NC(=O)Nc4cc(C(C)(C)C)nn4-c4ccc(C)cc4)c4ccccc34)ccn2)cn1` [Example 60], the IC50 in test [1] was found to be 14 nM; on p38MAPKγ (MAPK12), 144 nM.
Taken in the same sequence, the figures for `Cc1cccc(-n2nc(C(C)(C)C)cc2NC(=O)Nc2ccc(OCc3ccnc(Nc4cnc(CO)cn4)c3)c3ccccc23)c1` [Example 61] were 5.6 nM and 32 nM.
Taken in the same sequence, the figures for `CCc1cncc(Nc2cc(COc3ccc(NC(=O)Nc4cc(C(C)(C)C)nn4-c4cccc(F)c4)c4ccccc34)ccn2)n1` [Example 62] were 24 nM and 560 nM.
Consider `CCc1cncc(Nc2cc(COc3ccc(NC(=O)Nc4cc(C(C)(C)C)nn4-c4ccc(OC)nc4)c4ccccc34)ccn2)n1` [Example 63], for which the IC50 in test [1] was determined as 25 nM; at p38MAPKγ (MAPK12), 312 nM.
Taken in the same sequence, the figures for `COCc1ccc(-n2nc(C(C)(C)C)cc2NC(=O)Nc2ccc(OCc3ccnc(Nc4cnccn4)c3)c3ccccc23)cc1` [Example 64] were 9.7 nM and 39 nM.
For the molecule `CO[C@@H]1CCN(C(=O)c2cnc(Nc3cc(COc4ccc(NC(=O)Nc5cc(C(C)(C)C)nn5-c5ccc(C)cc5)c5ccccc45)ccn3)cn2)C1` [Example 66], the IC50 was determined as 28 nM in test [1] and 319 nM on p38MAPKγ (MAPK12).
As to `CO[C@H]1CCN(C(=O)c2cnc(Nc3cc(COc4ccc(NC(=O)Nc5cc(C(C)(C)C)nn5-c5ccc(C)cc5)c5ccccc45)ccn3)cn2)C1` [Example 67], the IC50 in test [1] was found to be 39 nM; on p38MAPKγ (MAPK12), 345 nM.
For the molecule `Cc1ccc(-n2nc(C(C)(C)C)cc2NC(=O)Nc2ccc(OCc3ccnc(Nc4cncc(C(C)C)n4)c3)c3ccccc23)cc1` [Example 68], the IC50 in test [1] was 132 nM; on p38MAPKγ (MAPK12) it was 624 nM.
With `Cc1cccc(-n2nc(C(C)(C)C)cc2NC(=O)Nc2ccc(OCc3ccnc(Nc4cnc(C(=O)N5CC[C@@H](O)C5)cn4)c3)c3ccccc23)c1` [Example 69], the IC50 in test [1] worked out at 8 nM; at p38MAPKγ (MAPK12) it was 106 nM.
As for `CCc1cncc(Nc2cc(COc3ccc(NC(=O)Nc4cc(C(C)(C)C)nn4-c4ccc(C)c(OC)c4)c4ccccc34)ccn2)n1` [Example 70], the IC50 in test [1] worked out at 70 nM; at p38MAPKγ (MAPK12) it was 372 nM.
The corresponding values for `COCc1cccc(-n2nc(C(C)(C)C)cc2NC(=O)Nc2ccc(OCc3ccnc(Nc4cnc(C(=O)N5CCCC5)cn4)c3)c3ccccc23)c1` [Example 71] are 24 nM and 272 nM.
The corresponding values for `Cc1ccc(-n2nc(C(C)(C)C)cc2NC(=O)Nc2ccc(OCc3ccnc(Nc4cnc(C(=O)NCCC(C)(C)O)cn4)c3)c3ccccc23)cc1` [Example 72] are 11 nM and 118 nM.
Taken in the same sequence, the figures for `COCCN(CCOC)C(=O)c1cnc(Nc2cc(COc3ccc(NC(=O)Nc4cc(C(C)(C)C)nn4-c4ccc(C)cc4)c4ccccc34)ccn2)cn1` [Example 73] were 19 nM and 259 nM.
On to `COC(C)(C)CNC(=O)c1cnc(Nc2cc(COc3ccc(NC(=O)Nc4cc(C(C)(C)C)nn4-c4ccc(C)cc4)c4ccccc34)ccn2)cn1` [Example 74], for which the IC50 in test [1] turned out to be 43 nM; on p38MAPKγ (MAPK12) it was 482 nM.
The corresponding values for `CC(C)(C)c1cc(NC(=O)Nc2ccc(OCc3ccnc(Nc4cnccn4)c3)c3ccccc23)n(-c2ccccc2)n1` [Example 75] are 17 nM and 179 nM.
Taken in the same sequence, the figures for `COCCN(CCOC)C(=O)c1cnc(Nc2cc(COc3ccc(NC(=O)Nc4cc(C(C)(C)C)nn4-c4cccc(C)c4)c4ccccc34)ccn2)cn1` [Example 76] were 15 nM and 148 nM.
Taken in the same sequence, the figures for `CN(C)c1ccc(-n2nc(C(C)(C)C)cc2NC(=O)Nc2ccc(OCc3ccnc(Nc4cnccn4)c3)c3ccccc23)cn1` [Example 78] were 21 nM and 422 nM.
On to `Cc1ccc(-n2nc(C(C)(C)C)cc2NC(=O)Nc2ccc(OCc3ccnc(Nc4cnc(C(=O)NCCN5CCCCC5)cn4)c3)c3ccccc23)cc1` [Example 79], for which the IC50 is less than 0.4 nM in test [1] and 101 nM at p38MAPKγ (MAPK12).
Taken in the same sequence, the figures for `Cc1ccc(-n2nc(C(C)(C)C)cc2NC(=O)Nc2ccc(OCc3ccnc(Nc4cnc(C(=O)NC5CCN(C)CC5)cn4)c3)c3ccccc23)cc1` [Example 80] were less than 0.41 nM and 54 nM.
Taken in the same sequence, the figures for `COc1ccc(-n2nc(C(C)(C)C)cc2NC(=O)Nc2ccc(OCc3ccnc(Nc4cncc(N(C)C)n4)c3)c3ccccc23)cc1` [Example 104, 1-(3-(tert-butyl)-1-(4-methoxyphenyl)-1H-pyrazol-5-yl)-3-(4-((2-((6-(dimethyl-amino)pyrazin-2-yl)amino)pyridin-4-yl)methoxy)naphthalen-1-yl)urea] were 8.9 nM and 223 nM.
Taken in the same sequence, the figures for `COc1cnc(Nc2cc(COc3ccc(NC(=O)Nc4cc(C(C)(C)C)nn4-c4ccc(C)cc4)c4ccccc34)ccn2)cn1` [Example 105, 1-(3-(tert-butyl)-1-(p-tolyl)-1H-pyrazol-5-yl)-3-(4-((2-((5-methoxypyrazin-2-yl)amino)pyridin-4-yl)methoxy)naphthalen-1-yl) urea] were less than 1.59 nM and 4560 nM.
For `Cc1ccc(-n2nc(C(C)(C)C)cc2NC(=O)Nc2ccc(OCc3ccnc(Nc4cncc(N)n4)c3)c3ccccc23)cc1` [Example 106, 1-(4-((2-((6-aminopyrazin-2-yl)amino)pyridin-4-yl)methoxy)naphthalen-1-yl)-3-(3-(tert-butyl)-1-(p-tolyl)-1H-pyrazol-5-yl)urea], the results for the IC50 (in test [1]; on p38MAPKγ (MAPK12)) were 3.4 nM and 401 nM, respectively.
Consider `COCC(=O)Nc1cncc(Nc2cc(COc3ccc(NC(=O)Nc4cc(C(C)(C)C)nn4-c4ccc(C)cc4)c4ccccc34)ccn2)n1` [Example 107, N-(6-((4-(((4-(3-(3-(tert-butyl)-1-(p-tolyl)-1H-pyrazol-5-yl)ureido)naphthalen-1-yl)oxy)methyl)pyridin-2-yl)amino)pyrazin-2-yl)-2-methoxyacetamide], for which the IC50 in test [1] came out at 27 nM; at p38MAPKγ (MAPK12), 5730 nM.
On to `COc1ccc(-n2nc(C(C)(C)C)cc2NC(=O)Nc2ccc(OCc3ccnc(Nc4cncc(OC)n4)c3)c3ccccc23)cc1` [Example 108, 1-(3-(tert-butyl)-1-(4-methoxyphenyl)-1H-pyrazol-5-yl)-3-(4-((2-((6-methoxypyrazin-2-yl)amino)pyridin-4-yl)methoxy)naphthalen-1-yl)urea], for which the IC50 in test [1] was determined as 17 nM; at p38MAPKγ (MAPK12) it was 15500 nM.
The corresponding values for `COc1cncc(Nc2cc(COc3ccc(NC(=O)Nc4cc(C(C)(C)C)nn4-c4ccc(C)s4)c4ccccc34)ccn2)n1` [Example 109, 1-(3-(tert-butyl)-1-(5-methylthiophen-2-yl)-1H-pyrazol-5-yl)-3-(4-((2-((6-methoxypyrazin-2-yl)amino)pyridin-4-yl)methoxy)naphthalen-1-yl) urea] are 115 nM and 1330 nM.
Taken in the same sequence, the figures for `COc1cncc(Nc2cc(COc3ccc(NC(=O)Nc4cc(C(C)(C)C)nn4-c4ccc(CO)cc4)c4ccccc34)ccn2)n1` [Example 110, 1-(3-(tert-butyl)-1-(4-(hydroxymethyl)phenyl)-1H-pyrazol-5-yl)-3-(4-((2-((6-methoxypyrazin-2-yl)amino)pyridin-4-yl)methoxy)naphthalen-1-yl) urea] were 1.6 nM and 23 nM.
Taken in the same sequence, the figures for `Cc1ccc(-n2nc(C(C)(C)C)cc2NC(=O)Nc2ccc(OCc3ccnc(Nc4cncc(N(C)C)n4)c3)c3ccccc23)s1` [Example 111, 1-(3-(tert-butyl)-1-(5-methylthiophen-2-yl)-1H-pyrazol-5-yl)-3-(4-((2-((6-(dimethylamino)pyrazin-2-yl)amino)pyridin-4-yl)methoxy)naphthalen-1-yl)urea] were 33 nM and 125 nM.
